From patent publication US4125605A, “Method of employing oral TRH” (The United States Government, priority 1977, dated 1978)

Key:
[1] = test system: nursing women between the 5th and 35 postpartum days; format: in vivo, human; conditions: 5 mg TRH oral single dose
Procedure: To test the efficacy of TRH, six nursing women between the 5th and 35 postpartum days were studied. Each received one 5 mg capsule of TRH in the early morning after an overnight fast. Six nursing women matched for postpartum interval received a placebo of lactose sugar. Blood samples were drawn from an indwelling catheter in an antecubital vein at -5,0,30,60,120, and 180 min.
A set of specific radioimmunoassays were employed for the measurement of plasma hormones. PRL was measured by a modification of the radioimmunoassay of Hwang et al., Proc. Nat. Acad. Sci., 68:1902 (1971) using the iodination technique of Greenwood et al., Biochem J., 89:114 (1963). Plasma LH and FSH were measured by using a modification of the double antibody radioimmunoassay of Midgely, Endocrinology, 79:10 (1966). Thyrotropin (TSH) was determined by a double antibody radioimmunoassay of Odell, Rayford and Ross, J. Lab. Clin. Med., 70:973 (1967). Plasma thyroxine (T4) by column was measured by the method of Pileggi and Kessler, Clin. Chem., 14:339 (1968). A modification of the immunoassay of Roth et al., Science, 140:987 (1963), was used to measure plasma growth hormone (GH) utilizing the iodination technique for prolactin. Antibody bound radioactivity was separated by the dextran-charcoal method of Herbert et al., J. Clin. Endocrinol. Metab., 25:1375 (1965). […]

[2] = test system: women practicing full nursing; format: in vivo, human
Procedure: (§1) Sixty women volunteered for this major study and each was instructed to practice full nursing for at least 90 postpartum days. Fifty percent of the women were dropped from the study before the end of the first postpartum month due to changes in nursing patterns. The remaining 30 women were randomly divided into TRH and control groups. TRH, 5 mg or a lactose placebo, was administered daily at 0800 and 2000 h for 30 days beginning on day 29 postpartum. Blood and milk samples were obtained on the first postpartum day and at weekly intervals between 1500 and 1600 h. Thus, blood samples were never obtained sooner than 7 h after the ingestion of TRH. Each women's nursing pattern was recorded by nurse-midwives. Charts of infant growth and development were plotted weekly.
(§2) With regard to sampling procedures, individual blood samples were collected in heparinized vacuum tubes. Neither nursing nor maternal food intake had occurred in the previous 3 h. The sampling procedure in Examples II and III consisted of placing the patient at rest for a minimum of 15 min after which blood was drawn from an antecubital vein. Blood samples were centrifuged and plasma was removed and stored at -20C. Samples originating outside the continental United States were delivered to the laboratory at quarterly intervals in dry ice by special messenger.
(§3) In Examples II and III, milk was obtained from each breast following blood sampling and immediately prior to nursing. The women were instructed to grasp first the right and then the left breast, kneading it gently toward the nipple. Thus, 10 ml or more of the fore milk was removed with ease through each nipple and combined in a sterile container. The sample was thoroughly mixed by vigorous shaking. A compressed tablet of mercuric chloride and potassium dichromate was then added as a preservative to each sample before storing.
(§4) A set of specific radioimmunoassays were employed for the measurement of plasma hormones. PRL was measured by a modification of the radioimmunoassay of Hwang et al., Proc. Nat. Acad. Sci., 68:1902 (1971) using the iodination technique of Greenwood et al., Biochem J., 89:114 (1963). Plasma LH and FSH were measured by using a modification of the double antibody radioimmunoassay of Midgely, Endocrinology, 79:10 (1966). Thyrotropin (TSH) was determined by a double antibody radioimmunoassay of Odell, Rayford and Ross, J. Lab. Clin. Med., 70:973 (1967). Plasma thyroxine (T4) by column was measured by the method of Pileggi and Kessler, Clin. Chem., 14:339 (1968). A modification of the immunoassay of Roth et al., Science, 140:987 (1963), was used to measure plasma growth hormone (GH) utilizing the iodination technique for prolactin. Antibody bound radioactivity was separated by the dextran-charcoal method of Herbert et al., J. Clin. Endocrinol. Metab., 25:1375 (1965). Each of the references mentioned in this paragraph is incorporated herein by reference.
For the analysis of milk composition, samples were thawed and held at room temperature for no more than 30 min. Aliquots were analyzed for percent fat, protein and lactose concentrations using the infrared milk analyzer (IRMA). Samples less than 30 ml in volume (about 10% of the total) were diluted up to 35 ml with distilled water. These were then homogenized with a Biosonic Model 3 Ultrasonicater (Bronwill Scientific Co., Rochester, N.Y.) at an exposed intensity of 70 vibrations per second for 30 sec. These samples were stored overnight at 4° C. and then analyzed for composition. […]

[3] = test system: infants of TRH-treated mothers; design: species or system human; conditions: in vivo, po
Procedure: as §1, with “Charts of infant growth and development were plotted weekly.” left out
A set of specific radioimmunoassays were employed for the measurement of plasma hormones. PRL was measured by a modification of the radioimmunoassay of Hwang et al., Proc. Nat. […] Plasma LH and FSH were measured by using a modification of the double antibody radioimmunoassay of Midgely, Endocrinology, 79:10 (1966). Thyrotropin (TSH) was determined by a double antibody radioimmunoassay of Odell, Rayford and Ross, J. Lab. […] Plasma thyroxine (T4) by column was measured by the method of Pileggi and Kessler, Clin. Chem., 14:339 (1968). […] Antibody bound radioactivity was separated by the dextran-charcoal method of Herbert et al., J. Clin. Endocrinol. […]

[4] = test system: women with lactational insufficiency practicing partial nursing; assay: Example III: oral TRH 5 mg or 20 mg twice a day for 5 days in women with lactational insufficiency; format: in vivo, human
Procedure: A group of 13 women with lactational insufficiency practicing partial nursing between 13-71 postpartum days were next studied. Four received TRH 5 mg and nine received 20 mg twice a day at 0800 and 2000 h for 5 days. Blood samples were obtained prior to the first capsule and daily thereafter for 5 days before taking the morning dose of TRH. Daily milk samples were also collected.
as §2, §3, §4
For the analysis of milk composition, samples were thawed and held at room temperature for no more than 30 min. Aliquots were analyzed for percent fat, protein and lactose concentrations using the infrared milk analyzer (IRMA). Samples less than 30 ml in volume (about 10% of the total) were diluted up to 35 ml with distilled water. These were then homogenized with a Biosonic Model 3 Ultrasonicater (Bronwill Scientific Co., Rochester, N.Y.) at an exposed intensity of 70 vibrations per second for 30 sec. These samples were stored overnight at 4° C. and then analyzed for composition. Corrections were made for any dilution.

[5] = test system: women with insufficient lactation; design: species or system human; conditions: in vivo
Procedure: as §4
As an experimental exercise, two women with insufficient lactation gave consent for the administration of 40 mg of oral TRH twice a day or the same time schedule as noted above. On the 7th day of therapy the patients were reevaluated and found to have lost weight. Their pulse rate was elevated as was their blood pressure. […]

surrogate mothers = assay: Induction of lactation in surrogate (adoptive) mothers with conjugated estrogens plus oral TRH; format: in vivo, human
Description: An additional use of TRH is in surrogate mothers. Studies in accordance with the present invention have involved the administration of TRH to adoptive mothers. In most instances, such women have undergone voluntary sterilization following the birth of natural children but, for one reason or another, wish to have another child. By the present invention, lactation has been induced in such women for the benefit of their adopted child by attempting to simulate the effects of pregnancy on prolactin secretion and, at the same time, by requesting that the […] practice auto-stimulation of the nipple. The technique of stimulation is as follows: Women are treated with 5 to 10 mg of conjugated estrogens equine twice a day for 14 days. Caution with regard to the possibility of side effects is given to each woman based upon the known effects of such estrogens on the vascular system. Beginning on the 7th day of estrogen treatment, oral TRH 5-10 mg twice a day, at intervals of about 12 hours, is administered for the final 7 days of treatment with estrogen. At the end of the 14th estrogen-treatment day, TRH is continued while the frequency of nipple stimulation is increased from four times daily to every 4 hours. In the women studied thus far, milk production can be induced within 72 hours following the withdrawal of the estrogen. […]

[6] = test system: puerperally lactating mothers; assay: Reestablishment of lactation in puerperally lactating mothers after emergency surgery; format: in vivo, human; conditions: mothers separated from child by emergency surgery; with coincident sucking
Description: The administration of TRH may also be initiated in puerperally lactating mothers who have to undergo emergency surgery such as polycystectomy, apendectomy, or the repair of fractures. Such surgery usually takes the mother away from the child for periods of time up to 14 days and a mother who is desirous of breastfeeding may find great difficulty in reestablishing lactation when she returns home from the hospital. In such cases, the administration of TRH has been associated with the reestablishment of lactation within 48 hours. It is to be emphasized that such lactation cannot be firmly established without coincident sucking of the nipple by the child.

postpartum women = assay: Low-dose TRH in postpartum women: prolactin versus thyrotropin response; format: in vivo, human
[7] = 20 mg dosage capsules three times a day, oral; cited from earlier work
[8] = 5 mg TRH every 12 h for 5 days, four women
[9] = 20 mg twice daily, Day 1 (before initial ingestion)

NC(=O)[C@@H]1CCCN1C(=O)[C@H](Cc1cnc[nH]1)NC(=O)[C@@H]1CCC(=O)N1 [TRH, thyrotropin releasing hormone]
mean maximal PRL increment ([1]; at 60 min, six nursing mothers): 46.3 ng/mL
peripheral PRL throughout the sampling period ([1]; sampling to 180 min): remained elevated
weekly 1500 h maternal PRL concentration ([2]; 5 mg TRH twice daily for 30 days, full nursing): not associated with any significant change
milk composition (percent of fat and protein concentration) ([2]; TRH versus control group, full nursing): did not differ significantly
bleeding patterns (postovulatory vaginal bleeding) ([2]; beyond the 14th postpartum week, TRH-treated versus placebo-treated mothers): no difference
T4 values ([2]; in vivo): normal
gonadotropin levels ([2]; measured weekly, TRH versus controls): identical in controls
infant plasma growth hormone [3]: 32.2 ± 4.9 ng/mL
infant plasma prolactin [3]: 200.3 ± 19.2 ng/mL
increase in the PRL concentration [4, 8]: 50%
milk production and letdown [4, 8]: increased
% Milk fat, Mean ± SE [4, 9]: 2.99±0.4%
% Milk protein, Mean ± SE [4, 9]: 1.81±0.2%
Plasma PRL, Mean ± SE ([4]; 20 mg twice daily, Day 1 (before initial ingestion), nine women): 27.8 ± 5.3 ng/mL
% Milk fat, Mean ± SE ([4]; 20 mg twice daily, Day 2, NS): 3.88±0.6%
% Milk protein, Mean ± SE ([4]; 20 mg twice daily, Day 2, NS): 1.63±0.2%
Plasma PRL, Mean ± SE ([4]; 20 mg twice daily, Day 2, P .0005 vs day 1): 53.1 ± 8.7 ng/mL
% Milk fat, Mean ± SE ([4]; 20 mg twice daily, Day 3, NS): 3.21± 0.4%
% Milk protein, Mean ± SE ([4]; 20 mg twice daily, Day 3, NS): 1.61± 0.1%
Plasma PRL, Mean ± SE ([4]; 20 mg twice daily, Day 3, P .005 vs day 1): 73.3 ± 12.4 ng/mL
% Milk fat, Mean ± SE ([4]; 20 mg twice daily, Day 4, NS): 3.79±0.4%
% Milk protein, Mean ± SE ([4]; 20 mg twice daily, Day 4, NS): 1.62±0.1%
Plasma PRL, Mean ± SE ([4]; 20 mg twice daily, Day 4, NS vs day 1): 44.1 ± 7.0 ng/mL
% Milk fat, Mean ± SE ([4]; 20 mg twice daily, Day 5, NS): 3.02±0.2%
% Milk protein, Mean ± SE ([4]; 20 mg twice daily, Day 5, NS): 1.60±0.1%
Plasma PRL, Mean ± SE ([4]; 20 mg twice daily, Day 5, NS vs day 1): 54.8 ± 13.9 ng/mL
mean percent fat composition of milk, greater than pretreatment ([4]; 20 mg twice daily, day two of treatment, difference not significant): ~1%
percent of lactose concentration in milk ([4]; milk samples obtained from all studies): remained constant
return to full nursing ([4]; partially nursing women after TRH ingestion): all were able to return to full nursing
breast engorgement and milk letdown ([4]; reported by each woman as a result of TRH ingestion): subjective and objective increases
reevaluation after discontinuation [5]: no clinical or laboratory evidence of hyperthyroidism
time to induction of milk production following the withdrawal of the estrogen (surrogate mothers; conjugated estrogens equine 5 to 10 mg twice a day 14 days, oral TRH 5-10 mg twice a day from 7th day, nipple stimulation): ≤ 72 h
basal plasma prolactin concentration (surrogate mothers; conjugated estrogens equine then oral TRH 5-10 mg twice a day, surrogate mothers): increase
time to reestablishment of lactation [6]: ≤ 48 h
dose for maximum prolactin response, times lower than dose for threshold thyrotropin secretion (postpartum women): 5 to 10 times
instances in which peripheral prolactin concentration is elevated (postpartum women; TRH in low doses): 95%
effect on the yield or composition of milk [7]: no significant effect
